Assay results as given in US20050026959A1, “Ethanol solvate of (-)-cis-2-(2-chloropheny)-5,7-dihydroxy-8-[4R-(3S-hydroxy-1-methyl)piperidinyl]-4H-1benzopyran-4-one” (Aventis Pharma Deutschland GmbH, priority 2000, published 2005).

Experiments:
[1] = Hygroscopicity of the solid form; format: physicochemical
Text: Form II is hygroscopic. It can be used in water free form or in a form with a certain water content. The use in a form, which is essentially free from water is preferred.

[2] = test system: cyclin dependent kinases (CDKs) including CDK1, CDK2, CDK4, CDK6 and CDK7; conditions: cdk1/cyclin B; cdk2/cyclin A; cdk2/cyclin E; cdk4/cyclinD; cdk6/cyclin D; cdk7/cyclin H; Int. J. Oncology 9: 1143-1168 (1996); cited from earlier work

CN1CC[C@H](c2c(O)cc(O)c3c(=O)cc(-c4ccccc4Cl)oc23)[C@H](O)C1.Cl (relative stereo) [Form II, (−)-cis-2-(2-chlorophenyl)-5,7-dihydroxy-8-[4R-(3S-hydroxy-1-methyl)piperidinyl]-4H-1-benzopyran-4-one hydrochloride]
hygroscopicity [1]: hygroscopic

CN1CC[C@H](c2c(O)cc(O)c3c(=O)cc(-c4ccccc4Cl)oc23)[C@H](O)C1 [Flavopiridol, (−)-cis-2-(2-chlorophenyl)-5,7-dihydroxy-8-[4R-(3S-hydroxyl-1-methyl)piperidinyl]-4H-1-benzopyran-4-one]
inhibition of cyclin dependent kinases [2]: strong inhibitor
